# Assay results as given in publication PMC5218480 (PLoS ONE, 2017).
# Test system: MV-4-11 cells
# Experiment: Gene expression microarray analysis (Affymetrix PrimeView) and GSEA
# Type: cell-based, human
# Set-up: RFU PODN (11730768_x_at) / Fold change /veh PODN (11730768_x_at) / RFU LINC00158 (11744669_a_at) / Fold change /veh LINC00158 (11744669_a_at) / RFU DUSP10 (11751237_a_at) / Fold change /veh DUSP10 (11751237_a_at) / RFU ID3 (11757404_x_at) / Fold change /veh ID3 (11757404_x_at) / RFU PLEKHG5 (11737974_s_at) / Fold change /veh PLEKHG5 (11737974_s_at) / RFU LRRC4B (11730491_at) / Fold change /veh LRRC4B (11730491_at) / RFU GIMAP4 (11747438_a_at) / Fold change /veh GIMAP4 (11747438_a_at) / RFU KRT8 (11758183_x_at) / Fold change /veh KRT8 (11758183_x_at) / RFU CNN1 (11734310_a_at) / Fold change /veh CNN1 (11734310_a_at) / RFU VPS37D (11726825_at) / Fold change /veh VPS37D (11726825_at) / RFU C10orf10 (11716522_x_at) / Fold change /veh C10orf10 (11716522_x_at) / RFU KIR2DL2 /// KIR2DL4 /// KIR2DL5A /// KIR2DL5B /// KIR2DS1 /// KIR2DS2 /// KIR2DS3 /// KIR2DS4 /// KIR3DL3 /// KIR3DL3 /// KIR3DS1 (11738374_at) / Fold change /veh KIR2DL2 /// KIR2DL4 /// KIR2DL5A /// KIR2DL5B /// KIR2DS1 /// KIR2DS2 /// KIR2DS3 /// KIR2DS4 /// KIR3DL3 /// KIR3DL3 /// KIR3DS1 (11738374_at) / RFU C1QL1 (11718748_at) / Fold change /veh C1QL1 (11718748_at) / RFU TMPRSS4 (11747572_a_at) / Fold change /veh TMPRSS4 (11747572_a_at) / RFU HAMP (11756126_x_at) / Fold change /veh HAMP (11756126_x_at) / RFU RNFT2 (11725882_a_at) / Fold change /veh RNFT2 (11725882_a_at) / RFU NR4A2 (11747474_a_at) / Fold change /veh NR4A2 (11747474_a_at) / RFU ABCC12 (11746883_a_at) / Fold change /veh ABCC12 (11746883_a_at) / RFU TMEM136 (11760407_x_at) / Fold change /veh TMEM136 (11760407_x_at) / RFU CLDN22 /// WWC2 (11732394_at) / Fold change /veh CLDN22 /// WWC2 (11732394_at) / RFU HLA-DPB1 (11760878_x_at) / Fold change /veh HLA-DPB1 (11760878_x_at) / RFU SPINT1 (11716480_a_at) / Fold change /veh SPINT1 (11716480_a_at) / RFU GAP43 (11754022_s_at) / Fold change /veh GAP43 (11754022_s_at) / RFU A4GNT (11735810_at) / Fold change /veh A4GNT (11735810_at) / RFU PRB3 (11715151_x_at) / Fold change /veh PRB3 (11715151_x_at) / RFU TUBB4B (11761932_at) / Fold change /veh TUBB4B (11761932_at) / RFU CAPN14 (11732068_a_at) / Fold change /veh CAPN14 (11732068_a_at) / RFU TMCC2 (11721928_a_at) / Fold change /veh TMCC2 (11721928_a_at) / RFU IRGQ (11745062_a_at) / Fold change /veh IRGQ (11745062_a_at) / RFU FAM174B (11720279_a_at) / Fold change /veh FAM174B (11720279_a_at) / RFU TMPRSS4 (11748680_a_at) / Fold change /veh TMPRSS4 (11748680_a_at) / RFU FAM212B (11763350_a_at) / Fold change /veh FAM212B (11763350_a_at) / RFU PLEKHG5 (11743358_a_at) / Fold change /veh PLEKHG5 (11743358_a_at) / RFU ZSCAN30 (11745921_a_at) / Fold change /veh ZSCAN30 (11745921_a_at) / RFU CMKLR1 (11741424_a_at) / Fold change /veh CMKLR1 (11741424_a_at) / RFU LOC101060620 /// MAPK8IP1 (11723275_at) / Fold change /veh LOC101060620 /// MAPK8IP1 (11723275_at) / RFU SPTSSB (11747773_x_at) / Fold change /veh SPTSSB (11747773_x_at) / RFU PRSS12 (11739890_at) / Fold change /veh PRSS12 (11739890_at) / RFU BIN1 (11741810_x_at) / Fold change /veh BIN1 (11741810_x_at) / RFU WNT11 (11732464_a_at) / Fold change /veh WNT11 (11732464_a_at) / RFU C10orf10 (11716521_a_at) / Fold change /veh C10orf10 (11716521_a_at) / RFU C5orf56 (11738089_at) / Fold change /veh C5orf56 (11738089_at) / RFU CYB561 (11721691_x_at) / Fold change /veh CYB561 (11721691_x_at) / RFU ANKRD19P (11752326_a_at) / Fold change /veh ANKRD19P (11752326_a_at) / RFU OR2T12 /// OR2T33 /// OR2T8 (11738714_s_at) / Fold change /veh OR2T12 /// OR2T33 /// OR2T8 (11738714_s_at) / RFU VCAN (11748164_a_at) / Fold change /veh VCAN (11748164_a_at) / RFU JSRP1 (11732532_at) / Fold change /veh JSRP1 (11732532_at) / RFU KRTAP10-11 (11738290_x_at) / Fold change /veh KRTAP10-11 (11738290_x_at) / RFU MYO3A (11730013_a_at) / Fold change /veh MYO3A (11730013_a_at) / RFU EBF3 (11725865_a_at) / Fold change /veh EBF3 (11725865_a_at) / RFU CAMK2N1 (11719241_x_at) / Fold change /veh CAMK2N1 (11719241_x_at) / RFU C5orf56 (11738088_a_at) / Fold change /veh C5orf56 (11738088_a_at) / RFU OLFML3 (11715873_a_at) / Fold change /veh OLFML3 (11715873_a_at) / RFU LOC100653217 /// NTM (11731650_a_at) / Fold change /veh LOC100653217 /// NTM (11731650_a_at) / RFU MAPK11 (11762145_a_at) / Fold change /veh MAPK11 (11762145_a_at) / RFU FIZ1 (11724087_x_at) / Fold change /veh FIZ1 (11724087_x_at) / RFU OASL (11726364_x_at) / Fold change /veh OASL (11726364_x_at) / RFU SOX15 (11748057_x_at) / Fold change /veh SOX15 (11748057_x_at) / RFU CD79A (11719716_a_at) / Fold change /veh CD79A (11719716_a_at) / RFU HIST1H1D (11736915_at) / Fold change /veh HIST1H1D (11736915_at) / RFU CASKIN2 (11723855_a_at) / Fold change /veh CASKIN2 (11723855_a_at) / RFU LOC730098 (11760151_x_at) / Fold change /veh LOC730098 (11760151_x_at) / RFU OR4N2 (11742367_at) / Fold change /veh OR4N2 (11742367_at) / RFU PRRT2 (11749266_a_at) / Fold change /veh PRRT2 (11749266_a_at) / RFU SNX32 (11753110_a_at) / Fold change /veh SNX32 (11753110_a_at) / RFU CDHR5 (11726645_a_at) / Fold change /veh CDHR5 (11726645_a_at) / RFU RCAN1 (11760418_a_at) / Fold change /veh RCAN1 (11760418_a_at) / RFU FAM167A (11723789_a_at) / Fold change /veh FAM167A (11723789_a_at) / RFU FAM26E (11764081_at) / Fold change /veh FAM26E (11764081_at) / RFU ISYNA1 (11749810_s_at) / Fold change /veh ISYNA1 (11749810_s_at) / RFU ACY1 (11761880_at) / Fold change /veh ACY1 (11761880_at) / RFU 11764098_at / Fold change /veh 11764098_at / RFU SAMD14 (11745864_x_at) / Fold change /veh SAMD14 (11745864_x_at) / RFU NPB (11741838_a_at) / Fold change /veh NPB (11741838_a_at) / RFU TMPRSS6 (11731388_a_at) / Fold change /veh TMPRSS6 (11731388_a_at) / RFU KRTAP10-2 (11738614_at) / Fold change /veh KRTAP10-2 (11738614_at) / RFU ARHGAP8 /// PRR5-ARHGAP8 (11727945_x_at) / Fold change /veh ARHGAP8 /// PRR5-ARHGAP8 (11727945_x_at) / RFU KRTAP5-7 /// NADSYN1 (11734609_at) / Fold change /veh KRTAP5-7 /// NADSYN1 (11734609_at) / RFU RASL12 (11751679_a_at) / Fold change /veh RASL12 (11751679_a_at) / RFU CDKN2B (11736163_a_at) / Fold change /veh CDKN2B (11736163_a_at) / RFU PRF1 (11729649_at) / Fold change /veh PRF1 (11729649_at) / RFU, ZNF638 /// ZNF638-IT1 / Fold change vs veh, ZNF638 /// ZNF638-IT1 / RFU, PANK3 / Fold change vs veh, PANK3 / RFU, SH3YL1 / Fold change vs veh, SH3YL1 / RFU, ZEB2 / Fold change vs veh, ZEB2 / RFU, NRIP1 / Fold change vs veh, NRIP1 / RFU, PTTG1IP / Fold change vs veh, PTTG1IP / RFU, CAPN2 / Fold change vs veh, CAPN2 / RFU, MED14 / Fold change vs veh, MED14 / RFU, SNORA58 / Fold change vs veh, SNORA58 / RFU, C1orf63 / Fold change vs veh, C1orf63 / RFU, LRRFIP1 / Fold change vs veh, LRRFIP1 / RFU, NDUFAF7 / Fold change vs veh, NDUFAF7 / RFU, SLC12A2 / Fold change vs veh, SLC12A2 / RFU, IBTK / Fold change vs veh, IBTK / RFU, ESF1 / Fold change vs veh, ESF1 / Fold change vs veh, TMEM50B / RFU, TAOK1 / Fold change vs veh, TAOK1 / RFU, ACBD3 / Fold change vs veh, ACBD3 / RFU, TMA16 / Fold change vs veh, TMA16 / RFU, RWDD3 / Fold change vs veh, RWDD3 / RFU, BCAT1 / Fold change vs veh, BCAT1 / RFU, EDEM3 / Fold change vs veh, EDEM3 / RFU, TMEM33 / Fold change vs veh, TMEM33 / RFU, WDR75 / Fold change vs veh, WDR75 / RFU, AHCTF1 / Fold change vs veh, AHCTF1 / RFU, TFRC / Fold change vs veh, TFRC / RFU, ZDHHC17 / Fold change vs veh, ZDHHC17 / RFU, NOM1 / Fold change vs veh, NOM1 / RFU, ARL8B / Fold change vs veh, ARL8B / RFU, ZBTB11 / Fold change vs veh, ZBTB11 / RFU, TAMM41 / Fold change vs veh, TAMM41 / RFU, KIAA1704 /// LOC100996395 / Fold change vs veh, KIAA1704 /// LOC100996395 / RFU, ING1 / Fold change vs veh, ING1 / RFU, TRMT61B / Fold change vs veh, TRMT61B / RFU, FUBP3 / Fold change vs veh, FUBP3 / RFU, TP53 / Fold change vs veh, TP53 / RFU, TNKS2 / Fold change vs veh, TNKS2 / RFU, ZFP14 / Fold change vs veh, ZFP14 / RFU, ACTR2 / Fold change vs veh, ACTR2 / RFU, PPP3R1 / Fold change vs veh, PPP3R1 / RFU, PIK3R1 / Fold change vs veh, PIK3R1 / RFU, HNRNPA1 / Fold change vs veh, HNRNPA1 / RFU, RNF170 / Fold change vs veh, RNF170 / RFU, ZNF28 / Fold change vs veh, ZNF28 / RFU, RNGTT / Fold change vs veh, RNGTT / RFU, OGT / Fold change vs veh, OGT / RFU, BRD1 / Fold change vs veh, BRD1 / RFU, MARS / Fold change vs veh, MARS / RFU, ZNF655 / Fold change vs veh, ZNF655 / RFU, FAHD1 / Fold change vs veh, FAHD1 / RFU, BDP1 / Fold change vs veh, BDP1 / RFU, LRRCC1 / Fold change vs veh, LRRCC1 / RFU, ARID1A / Fold change vs veh, ARID1A / RFU, ZNF146 / Fold change vs veh, ZNF146 / RFU, ZNF330 / Fold change vs veh, ZNF330 / RFU, GPN3 / Fold change vs veh, GPN3 / RFU, C9orf123 / Fold change vs veh, C9orf123 / RFU, N4BP2L2 / Fold change vs veh, N4BP2L2 / RFU, ARFIP1 / Fold change vs veh, ARFIP1 / RFU, FAM179B / Fold change vs veh, FAM179B / RFU, BCL10 / Fold change vs veh, BCL10 / RFU, UHRF1BP1L / Fold change vs veh, UHRF1BP1L / RFU, BET1 / Fold change vs veh, BET1 / RFU, CNOT2 / Fold change vs veh, CNOT2 / RFU, ZNF268 / Fold change vs veh, ZNF268 / Fold change vs veh, ZNF507 / RFU, DGCR2 / Fold change vs veh, DGCR2 / RFU, WDSUB1 / Fold change vs veh, WDSUB1 / Fold change vs veh, HSP90B1 /// MIR3652 / RFU, ADSS / Fold change vs veh, ADSS / RFU, GK / Fold change vs veh, GK / RFU, ZNF148 / Fold change vs veh, ZNF148 / RFU, TAF9 / Fold change vs veh, TAF9 / RFU, SLC1A5 / Fold change vs veh, SLC1A5 / RFU, SLMO2 / Fold change vs veh, SLMO2 / RFU, ABCC4 / Fold change vs veh, ABCC4 / RFU, LOC101060439 /// RAP1B / Fold change vs veh, LOC101060439 /// RAP1B / RFU, RFX7 / Fold change vs veh, RFX7 / RFU, GTPBP10 / Fold change vs veh, GTPBP10 / RFU, CNEP1R1 / Fold change vs veh, CNEP1R1 / RFU, BIVM-ERCC5 /// ERCC5 / Fold change vs veh, BIVM-ERCC5 /// ERCC5 / RFU, ILF3 / Fold change vs veh, ILF3 / RFU 11762660_at / Fold change /veh 11762660_at / RFU VCAN (11757783_s_at) / Fold change /veh VCAN (11757783_s_at) / RFU DDX43 (11728927_at) / Fold change /veh DDX43 (11728927_at) / RFU KRT8 (11758188_x_at) / Fold change /veh KRT8 (11758188_x_at) / RFU NKD1 (11759106_at) / Fold change /veh NKD1 (11759106_at) / RFU SRD5A1 (11742802_a_at) / Fold change /veh SRD5A1 (11742802_a_at) / RFU TPSAB1 /// TPSB2 (11721975_s_at) / Fold change /veh TPSAB1 /// TPSB2 (11721975_s_at) / RFU GSTM3 (11746129_a_at) / Fold change /veh GSTM3 (11746129_a_at) / RFU IL23R (11737362_x_at) / Fold change /veh IL23R (11737362_x_at) / RFU TMEM51 (11727254_a_at) / Fold change /veh TMEM51 (11727254_a_at) / RFU PIWIL2 (11732686_x_at) / Fold change /veh PIWIL2 (11732686_x_at) / RFU ORM1 (11744905_x_at) / Fold change /veh ORM1 (11744905_x_at) / RFU CCDC152 (11743942_at) / Fold change /veh CCDC152 (11743942_at) / RFU ECM1 (11717891_a_at) / Fold change /veh ECM1 (11717891_a_at) / RFU IL23R (11748794_a_at) / Fold change /veh IL23R (11748794_a_at) / RFU TNFAIP8L3 (11732012_x_at) / Fold change /veh TNFAIP8L3 (11732012_x_at) / RFU MBOAT4 (11741988_at) / Fold change /veh MBOAT4 (11741988_at) / RFU 11764193_at / Fold change /veh 11764193_at / RFU TMEM53 (11763286_at) / Fold change /veh TMEM53 (11763286_at) / RFU MAGEB2 (11727129_at) / Fold change /veh MAGEB2 (11727129_at) / RFU TMEM200A (11744735_a_at) / Fold change /veh TMEM200A (11744735_a_at) / RFU CCDC152 (11751479_a_at) / Fold change /veh CCDC152 (11751479_a_at) / RFU FAM211A (11726209_a_at) / Fold change /veh FAM211A (11726209_a_at) / RFU RGS16 (11746705_a_at) / Fold change /veh RGS16 (11746705_a_at) / RFU VCAN (11755009_s_at) / Fold change /veh VCAN (11755009_s_at) / RFU RHOB (11743442_s_at) / Fold change /veh RHOB (11743442_s_at) / RFU RGS16 (11720943_a_at) / Fold change /veh RGS16 (11720943_a_at) / RFU RGS16 (11720944_at) / Fold change /veh RGS16 (11720944_at) / RFU, VPS4B / Fold change vs veh, VPS4B / RFU, CREB1 / Fold change vs veh, CREB1 / RFU, DNAJC13 / Fold change vs veh, DNAJC13 / RFU, GNAQ / Fold change vs veh, GNAQ / RFU, CDK5R1 / Fold change vs veh, CDK5R1 / RFU, ZRANB3 / Fold change vs veh, ZRANB3 / RFU, CUL4A / Fold change vs veh, CUL4A / RFU, CCNY / Fold change vs veh, CCNY / RFU, UFL1 / Fold change vs veh, UFL1 / RFU, COG3 / Fold change vs veh, COG3 / RFU, DIAPH2 / Fold change vs veh, DIAPH2 / RFU, SKA2 / Fold change vs veh, SKA2 / RFU, AFF3 / Fold change vs veh, AFF3 / RFU, LMF1 / Fold change vs veh, LMF1 / RFU, IPO11 / Fold change vs veh, IPO11 / RFU, DFFB / Fold change vs veh, DFFB / RFU, FOXP1 / Fold change vs veh, FOXP1 / RFU, CARD8 / Fold change vs veh, CARD8 / RFU, STRN3 / Fold change vs veh, STRN3 / RFU, ADK / Fold change vs veh, ADK / RFU, RASSF2 / Fold change vs veh, RASSF2 / RFU, WIPF1 / Fold change vs veh, WIPF1 / RFU, LARP1B / Fold change vs veh, LARP1B / RFU, RASA1 / Fold change vs veh, RASA1 / RFU, RB1 / Fold change vs veh, RB1 / RFU, PPFIA1 / Fold change vs veh, PPFIA1 / RFU, MAT2A / Fold change vs veh, MAT2A / RFU, CCT5 / Fold change vs veh, CCT5 / RFU, WDR92 / Fold change vs veh, WDR92 / RFU, CUX1 / Fold change vs veh, CUX1 / RFU, TTC7A / Fold change vs veh, TTC7A / RFU, TMEM135 / Fold change vs veh, TMEM135 / RFU, DEPTOR / Fold change vs veh, DEPTOR / RFU, CPM / Fold change vs veh, CPM / RFU, DNAJB6 / Fold change vs veh, DNAJB6 / RFU, CACNA2D3 / Fold change vs veh, CACNA2D3 / RFU, DTX4 / Fold change vs veh, DTX4 / RFU, TFCP2 / Fold change vs veh, TFCP2 / RFU, GMCL1 /// GMCL1P1 / Fold change vs veh, GMCL1 /// GMCL1P1 / RFU, AEBP2 / Fold change vs veh, AEBP2 / RFU, SNHG1 /// SNORD22 /// SNORD25 /// SNORD26 /// SNORD27 /// SNORD28 /// SNORD29 /// SNORD31 / Fold change vs veh, SNHG1 /// SNORD22 /// SNORD25 /// SNORD26 /// SNORD27 /// SNORD28 /// SNORD29 /// SNORD31 / Fold change (Aza/veh), C12orf56 (ProbeSet 11735607_a_at) / Fold change (ACY-1035/veh), C12orf56 (ProbeSet 11735607_a_at) / Fold change (Aza/veh), FGFR1OP (ProbeSet 11751329_s_at) / Fold change (ACY-1035/veh), FGFR1OP (ProbeSet 11751329_s_at) / Fold change (Aza/veh), VPS36 (ProbeSet 11739960_a_at) / Fold change (ACY-1035/veh), VPS36 (ProbeSet 11739960_a_at) / RFU SYPL1 (11715823_x_at) / Fold change /veh SYPL1 (11715823_x_at) / RFU IGFBP7 (11715501_s_at) / Fold change /veh IGFBP7 (11715501_s_at) / RFU REEP3 (11722064_at) / Fold change /veh REEP3 (11722064_at) / RFU IGLL1 (11728026_x_at) / Fold change /veh IGLL1 (11728026_x_at): dose or concentration left out as unconfirmed
# Conditions: ProbeSet 11718977_a_at; LIST B
compound,measurement,value
Nc1ncn([C@@H]2O[C@H](CO)[C@@H](O)[C@H]2O)c(=O)n1 [azacitidine],"RFU, CAPN2",169.72 RFU
